In US20110178396A1, “Nicotinamide Derivatives” (CRC FOR BIOMEDICAL IMAGING DEVELOPMENT LTD., priority 2008, published 2011):

System: B16F0 melanoma tumour
Assay: Biodistribution in B16 melanoma bearing mice
Assay type: in vivo, C57BL/6J mice
Conditions: B16 melanoma bearing mice
Method: Animal experiments were performed in compliance with the NHMRC Australian Code of Practice for the care and use of animals for scientific purposes. Female C57BL/6J black and BALB/c nude albino mice of 5 weeks age were obtained from the Animal Resources Centre, Western Australia. B16F0 murine melanoma cells were originally obtained from European Collection of Cell Cultures (UK) and A375 human amelanotic melanoma cells were originally obtained from American Type Culture Collection (USA). Before transplantation, B16F0 and A375 melanoma cells were maintained as a monolayer in RPMI culture medium supplemented with 10% foetal calf serum and antibiotics and passaged with trypsinisation. Early passages were frozen and stored in liquid nitrogen. Cells were passaged to P=10 and then discarded. Frozen aliquots were grown in a monolayer culture to between 80-95% confluence and for transplantation were trypsinised and washed with Ca^2+ and Mg^2+ free phosphate buffered saline (PBS). For inoculation, B16F0 melanoma cells were resuspended in Ca^2+ and Mg^2+ free PBS at 3 or 5×10^6 viable cells per ml and 0.1 ml was subcutaneously injected at the left flank of 6-7 weeks old C57BL/6J mice. Eleven days later, tumours could be palpated in >98% of inoculated animals. A375 human melanoma cells were resuspended at 1×10^7 viablecells per ml and 0.1 ml was injected subcutaneously at the left flank of 6 weeks old BALB/c nude mice and 25-26 days later tumours could be palpated with ˜60% of inoculated animals developing tumours.
Eleven days (B16F0 melanoma) and 25 days (A375 human melanoma) after tumour transplantation, the [^18F]nicotinamides (0.5-1.5 MBq, 100 μl) and [^123I]nicotinamide (0.37-0.74 MBq, 100 μl) derivatives were injected intravenously via the tail vein into mice (15-18 g). Time points of 1, 3, 6, 24, 48, 72 h after injection were chosen for determining the distribution of each compound in various organs and tissues for the iodine-123 labelled compounds and between 15 min and 6 hours (e.g. 15 min, 30 min, 1 h, 2 h, 4 h or 6 h) were chosen for the ^18F-labelled compounds. At defined times post injection, groups of mice (n=5) were weighed, sacrificed by CO2 administration followed by cervical dislocation and dissected. Selected organs were weighed and their radioactivity measured with a γ-counter. The remaining activity in the carcass was also determined in order to obtain the total activity in the mouse at defined time points. The fraction of injected activity (% ID) in the organ was calculated by comparison with suitable dilutions of the injected dose. Then, the radioactivity concentration in the organ (% ID/g) was found by dividing the % ID for each organ by the weight of the organ.

uptake BLOOD (15 min): 2.048 % ID/g | uptake BONE (15 min): 3.493 % ID/g | uptake BRAIN (15 min): 2.471 % ID/g | uptake EYES (15 min): 14.678 % ID/g | uptake GIT (15 min): 5.421 % ID/g | uptake HEART (15 min): 3.153 % ID/g | uptake KIDNEY (15 min): 14.117 % ID/g | uptake LIVER (15 min): 10.148 % ID/g | uptake LUNGS (15 min): 5.616 % ID/g | uptake MUSCLE (15 min): 3.796 % ID/g | uptake SKIN (15 min): 2.214 % ID/g | uptake SPLEEN (15 min): 8.585 % ID/g | uptake STOMACH (15 min): 9.344 % ID/g | uptake THYROID (15 min): 5.515 % ID/g | uptake TUMOUR (15 min): 6.970 % ID/g | uptake BLOOD (30 min): 1.218 % ID/g | uptake BONE (30 min): 2.078 % ID/g | uptake BRAIN (30 min): 1.997 % ID/g | uptake EYES (30 min): 15.976 % ID/g | uptake GIT (30 min): 3.855 % ID/g | uptake HEART (30 min): 1.902 % ID/g | uptake KIDNEY (30 min): 9.595 % ID/g | uptake LIVER (30 min): 5.825 % ID/g | uptake LUNGS (30 min): 2.922 % ID/g | uptake MUSCLE (30 min): 2.240 % ID/g | uptake SKIN (30 min): 1.473 % ID/g | uptake SPLEEN (30 min): 7.225 % ID/g | uptake STOMACH (30 min): 6.639 % ID/g | uptake THYROID (30 min): 2.537 % ID/g | uptake TUMOUR (30 min): 8.582 % ID/g | uptake BLOOD (1 h): 0.619 % ID/g | uptake BONE (1 h): 1.368 % ID/g | uptake BRAIN (1 h): 1.096 % ID/g | uptake EYES (1 h): 18.808 % ID/g | uptake GIT (1 h): 2.102 % ID/g | uptake HEART (1 h): 0.977 % ID/g | uptake KIDNEY (1 h): 3.446 % ID/g | uptake LIVER (1 h): 2.813 % ID/g | uptake LUNGS (1 h): 1.632 % ID/g | uptake MUSCLE (1 h): 1.248 % ID/g | uptake SKIN (1 h): 0.766 % ID/g | uptake SPLEEN (1 h): 2.393 % ID/g | uptake STOMACH (1 h): 3.370 % ID/g | uptake THYROID (1 h): 3.327 % ID/g | uptake TUMOUR (1 h): 8.376 % ID/g | uptake BLOOD (2 h): 0.147 % ID/g | uptake BONE (2 h): 0.578 % ID/g | uptake BRAIN (2 h): 0.270 % ID/g | uptake EYES (2 h): 17.281 % ID/g | uptake GIT (2 h): 0.708 % ID/g | uptake HEART (2 h): 0.246 % ID/g | uptake KIDNEY (2 h): 0.676 % ID/g | uptake LIVER (2 h): 0.693 % ID/g | uptake LUNGS (2 h): 0.386 % ID/g | uptake MUSCLE (2 h): 0.276 % ID/g | uptake SKIN (2 h): 0.356 % ID/g | uptake SPLEEN (2 h): 1.848 % ID/g | uptake STOMACH (2 h): 1.472 % ID/g | uptake THYROID (2 h): 0.609 % ID/g | uptake TUMOUR (2 h): 9.416 % ID/g | uptake BLOOD (3 h): 0.111 % ID/g | uptake BONE (3 h): 0.624 % ID/g | uptake BRAIN (3 h): 0.150 % ID/g | uptake EYES (3 h): 17.276 % ID/g | uptake GIT (3 h): 0.541 % ID/g | uptake HEART (3 h): 0.166 % ID/g | uptake KIDNEY (3 h): 0.394 % ID/g | uptake LIVER (3 h): 0.491 % ID/g | uptake LUNGS (3 h): 0.253 % ID/g | uptake MUSCLE (3 h): 0.201 % ID/g | uptake SKIN (3 h): 0.172 % ID/g | uptake SPLEEN (3 h): 0.890 % ID/g | uptake STOMACH (3 h): 0.828 % ID/g | uptake THYROID (3 h): 0.488 % ID/g | uptake TUMOUR (3 h): 7.753 % ID/g | uptake BLOOD (6 h): 0.020 % ID/g | uptake BONE (6 h): 0.515 % ID/g | uptake BRAIN (6 h): 0.039 % ID/g | uptake EYES (6 h): 15.591 % ID/g | uptake GIT (6 h): 0.135 % ID/g | uptake HEART (6 h): 0.054 % ID/g | uptake KIDNEY (6 h): 0.075 % ID/g | uptake LIVER (6 h): 0.123 % ID/g | uptake LUNGS (6 h): 0.066 % ID/g | uptake MUSCLE (6 h): 0.032 % ID/g | uptake SKIN (6 h): 0.041 % ID/g | uptake SPLEEN (6 h): 0.470 % ID/g | uptake STOMACH (6 h): 0.193 % ID/g | uptake THYROID (6 h): 0.168 % ID/g | uptake TUMOUR (6 h): 7.747 % ID/g | uptake in melanin containing tissue (tumour and eyes) (six hour period): high uptake | washout in all other tissue (six hour period): rapid washout
SMILES: CCN(CC)CCNC(=O)c1ccc(F)nc1 [[^18F]MEL2, 6-Fluoro-N-[2-(diethylamino)ethyl]nicotinamide]
